Results taken from US20060269480A1, “Multi-triggered self-immolative dendritic compounds” (Ramot At Tel Aviv University Ltd., priority 2005, published 2006).

Assays:
[1] = system: MOLT-3 cells; assay: Cell growth inhibition, [3H]thymidine proliferation assay; format: cell-based; conditions: Homo sapiens, 72 hours incubation, 38C2 or PGA at 1 μM where stated
Procedure: (§1) Cell lines: Human T-lineage acute lymphoblastic leukemia (ALL) cell line MOLT-3, and human erythroleukemia cell line HEL were purchased from American Type Culture Collection (ATCC, Rockville, Md.) and maintained in RPMI 1640 medium (Hyclone, Logan, Utah) supplemented with 10% FCS, 1.5 gram/liter sodium bicarbonate, 10 mM HEPES, 1 mM sodium pyruvate, and antibiotics (Gibco, Grand Island, N.Y.).
(§2) Cytotoxicity assays: Stock solutions of 2 mM doxorubicin (Dox) and dual-triggered prodrug (pro-Dox, Compound 16) in dimethylformamide were stored at 4° C. For cell-growth inhibition assays, 100 μM solutions of the drug or prodrug in PBS were freshly prepared from the 2 mM stock solutions.
(§3) Cells were harvested from culture dishes, washed once with HBSS, re-suspended in cell culture medium, and plated in 96-well tissue culture plate at a density of 5×10^3/well in 100 μl media. Drugs were further diluted in cell culture medium to yield final concentration of 50 pM-1 μM and added to the cells. […] The cells were frozen at −80° C. overnight and subsequently processed on a multichannel automated cell harvester (Cambridge Technology, Cambridge, Mass.) and counted in a liquid scintillation beta counter (Beckman Coulter). […] The inhibition in experiment E was calculated according to the following formula: (background−E)/background×100%. […]

[2] = system: HEL cells; assay: as above; format: cell-based; conditions: Homo sapiens, read-out: IC50, HEL cells, 72 hours incubation, 38C2 or PGA at 1 μM where stated, read-out: IC50, Hell cells
Procedure: as §1, §2, §3

[3] = system: MOLT-3 cells; assay: Apoptosis by annexin V/7-AAD flow cytometry; format: cell-based, human; conditions: 25 nM drug or prodrug, 1 μM 38C2 or PGA where stated
Procedure: as §1
Assessment of apoptosis: Cells were stained with Phycoerythrin (PE)-conjugated annexin V and 7-AAD using the annexin V kit (BD PharMingen, San Diego, Calif.) according to the manufacture's protocol. In brief, cells were collected at different time points, washed once with EDTA-free PBS, and then incubated for 15 minutes with a mixture containing annexin V-PE and 7-AAD in binding buffer (10 mM HEPES (pH 7.4), 140 mM NaCl, and 2.5 mM CaCl2). Thereafter, the supernatants were removed, and 400 μl of binding buffer was added to each sample. The fluorescence was analyzed by flow cytometry (FACScan, Becton Dickinson, San Jose, Calif.) for the presence of viable (AV^− and 7-AAD^−), early apoptotic (AV^+, 7-AAD^−), and late apoptotic/secondary necrotic (AV^+ and 7-AAD^+) cells.
MOLT-3cells were incubated in the presence of Compound 16 and PGA or Ab38C2, as described in the Methods section hereinabove, for various time periods. […]

COc1cccc2c1C(=O)c1c(O)c3c(c(O)c1C2=O)C[C@@](O)(C(=O)CO)C[C@@H]3O[C@H]1C[C@H](N)[C@H](O)[C@H](C)O1 [Dox, doxorubicin]
IC50 [1]: 3 nM
IC50 [2]: 20 nM
incubation time after which the majority of cells were in early or late apoptotic state [3]: 24 h
induction of apoptosis ([3]; up to 72 hours): undergo apoptosis
